US20230050846A1, “TREATMENT OF HEPATIC AND CARDIOVASCULAR DISORDERS” (LIFESEARCH, priority 2019, published 2023)
Peptide text beside a SMILES is read from it. * marks the point of attachment. Palmitoyl = CCCCCCCCCCCCCCCC(=O)*

How the values were obtained:
human F1Fo-ATPase = target: T1, human F1Fo-ATPase (Homo sapiens, UniProt P06576); assay: Surface plasmon resonance (SPR) binding to purified human F1Fo-ATPase; details: SPR single-cycle kinetics; His-tag / biotin variant of peptide immobilized, F1Fo-ATPase as analyte; read-out: KD (affinity between F1Fo-ATPase and immobilized peptide)
T1 construct: Human F1Fo-ATPase was purified from HepG2 cells by immunocapture; endogenous in cells; host or cells: HepG2 cells; complex isolated by immunocapture with anti-ATP synthase antibody 12F4AD8AF8 (#ab109867, Abcam)
Procedure: Surface plasmon resonance (SPR) assays. Binding studies based on SPR technology were performed on a BIAcore T200 optical biosensor instrument (GE Healthcare®, Uppsala, Sweden). The peptide of formula (I) with C-terminal 6×His-tag (Formula (I)-His-tag: CH3CO-[SEQ ID NO: 1]-HHHHHH) and the peptide of formula (II) with C-terminal biotin (Formula (II)-Biotin: CH3CO-[SEQ ID NO: 1]-K-[palmitoyl]-AEEAc-K-[biotinyl]-NH2) were custom-synthesized by BACHEM AG (Bubendorf, Switzerland) with >90% purity in trifluoroacetate salt. Human F1Fo-ATPase was purified from HepG2 cells by immunocapture using mouse monoclonal anti-ATP synthase antibody (12F4AD8AF8, #ab109867, Abcam) according to manufacturer's instructions.
Immobilization of the peptide of formula (I)-6His-tag was performed on a nitrilotriacetic acid (NTA) sensorchip in HBS-P+ buffer (10 mM Hepes pH 7.4, 150 mM NaCl, and 0.05% surfactant P20) (GE Healthcare). To saturate the NTA surface with Ni2^+, flow cells (Fc) were loaded with 0.5 mM NiCl2 solution. The channel Fc1 was left empty and used as a reference surface for nonspecific binding measurements. Formula (I)-6×His was injected in the channel Fc2 at a flow-rate of 5 μL/min and stabilized by amine coupling (Laboratory guideline 29-0057-17 AB). The total amount of immobilized Formula (I)-His-tag was 300-350 resonance units (RU): final concentration 25 μg/mL. […]

[1] = Stability in PBS (LC-HRMS); assay type: physicochemical; details: 4° C. and 37° C., 4 weeks
Procedure: Peptide of Formula (I) or peptide of Formula (II) were prepared at a concentration of 200 μg/mL in PBS or mixed with EDTA plasma or serum from human (Etablissement Frangais du Sang, EFS) or mouse (C57BL/6J, cardiac puncture). Aliquots from PBS samples (40 μL) were incubated at 4° C. or 37° C. for 0, 1, 2 and 4 weeks. Aliquots from plasma and serum samples (50 μL) were incubated at 4° C. or 37° C. for 0, 1, 2, 4, 6, 12, 24 h.
A mixed solution of peptides of formula (I) and (II) was constituted and serially diluted in PBS to obtain seven standard solutions, ranging from 200 μg/mL to 0.2 μg/mL. In parallel, a mixed solution of labelled peptides of Formula (I) and (II) (Thermo Scientific, Biopolymers Darmstadt, Germany) was prepared in PBS at 100 μg/mL. The mixed solution of labelled peptides (25 μL) was added to 25 μL of standard solutions as well as to PBS, plasma and serum samples. Acetonitrile (150 μL) was added to each sample to precipitate plasma/serum proteins. […] Peptides were analyzed according to their major exact m/z (i 5 ppm, Table 1) and each peptide signal was normalized with that of its labelled internal standard. Peptide concentrations were calculated using calibration curves plotted from standard solutions (linear regression, 1/x weighted, origin excluded).

CCCCCCCCCCCCCCCC(=O)NCCCC[C@H](NC(=O)[C@H](CCC(=O)O)NC(=O)[C@H](CCCNC(=N)N)NC(=O)[C@H](CO)NC(=O)[C@H](CCC(N)=O)NC(=O)[C@H](C)NC(=O)[C@H](CCCNC(=N)N)NC(=O)[C@H](Cc1ccccc1)NC(=O)[C@H](Cc1ccc(O)cc1)NC(=O)[C@H](CCCNC(=N)N)NC(=O)[C@H](CCC(=O)O)NC(=O)[C@H](CCC(=O)O)NC(=O)[C@H](CCC(=O)O)NC(=O)[C@H](C)NC(=O)[C@H](CCC(N)=O)NC(=O)[C@H](CCC(=O)O)NC(=O)[C@H](CCCNC(=N)N)NC(=O)[C@H](CCCCN)NC(=O)CNC(=O)[C@H](Cc1ccccc1)NC(=O)[C@H](C)NC(=O)CNC(=O)CNC(=O)[C@H](C)NC(=O)[C@H](CCC(=O)O)NC(=O)[C@H](CCCNC(=N)N)NC(=O)[C@@H](NC(=O)[C@H](CO)NC(=O)CNC(=O)[C@H](C)NC(=O)CNC(=O)[C@H](CCCNC(=N)N)NC(C)=O)[C@@H](C)CC)C(N)=O [peptide of formula (II), CH3CO-[SEQ ID NO: 1]-K-[palmitoyl]-NH2] (Ac-RGAGSIREAGGAFGKREQAEEERYFRAQSREK(Palmitoyl)-NH2)
Kd (human F1Fo-ATPase): 4.45 nM
stability in PBS [1]: stable

Ac-RGAGSIREAGGAFGKREQAEEERYFRAQSRE-NH2 [peptide of formula (I), CH3CO-[SEQ ID NO: 1]-NH2]
Kd (human F1Fo-ATPase): 19 nM
stability in PBS [1]: stable
